According to the NIST ThermoML archive (doi:10.1016/j.jct.2013.08.005):
± gives the expanded uncertainty stated by the source.

Conditions: 298.15 K; Liquid; Gas chromatography

SMILES	vapor or sublimation pressure
c1ccc(CC2CCNCC2)cc1 [4-benzylpiperidine]	0.0015 ± 0.0003 kPa
CN[C@@H](C)Cc1ccccc1 [(S)-N-methyl-1-phenylpropan-2-amine]	0.0375 ± 0.008 kPa
C1CCNCC1 [piperidine]	3.52 ± 0.75 kPa

Other lines, results leading:

vapor or sublimation pressure	SMILES
1.576 ± 0.33 kPa	C[C@@H]1CCC[C@H](C)N1 [2,6-lupetidine, cis-]
0.00054 ± 0.00011 kPa	CCCCCCCNCCCCCCC [N-heptyl-1-heptanamine]
0.383 ± 0.12 kPa	CCCCNCCCC [dibutylamine]
5.6e-05 ± 1.2e-05 kPa	CCCCCCCCNCCCCCCCC [dioctylamine]
0.041 ± 0.009 kPa	CCCCCNCCCCC [dipentylamine]
